Data on five compounds can be found in patent US20050282743A1, “Molecular interactions in cells” (Arbor Vita Corporation, priority 2001, published 2005).

Holding throughout (assay): G' assay (10 uM PL peptide), results of TABLE 7 and TABLE 12
Common to all, as to assay type: binding

In assay [1] the target is T1, PDZ protein (GST-PDZ fusion) (Homo sapiens, UniProt P57105).
T1 construct: made in house; host or cells: E. coli (DH5alpha, BL21 or JM109)
T1 sequence (P57105 1-145): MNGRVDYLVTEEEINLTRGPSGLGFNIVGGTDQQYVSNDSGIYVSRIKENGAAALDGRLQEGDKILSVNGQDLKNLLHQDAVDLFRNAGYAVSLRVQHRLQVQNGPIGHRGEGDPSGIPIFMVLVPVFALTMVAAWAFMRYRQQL
As to conditions: PDZ Outer Membrane, PDZ Domain 1. An outline of the steps:
(§1)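 Biotin-PL peptide (N-term label), 10 uM vs GST-PDZ; protein 5 ug/ml by default. A450 nm binned: 1 = 0-1, 2 = 1-2, 3 = 2-3, 4 = 3-4, 5 = >4 on >2 repeats, 0 = no binding.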

Assay [2] concerns the target T2, PDZ protein (GST-PDZ fusion) (Homo sapiens, UniProt Q12923).
T2 construct: made in house; host or cells: E. coli (DH5alpha, BL21 or JM109)
A digest of the protocol:
as §1

In assay [3] the target is T3, PDZ protein (GST-PDZ fusion) (Homo sapiens, UniProt Q5TCQ9).
T3 construct: made in house; host or cells: E. coli (DH5alpha, BL21 or JM109)
T3 sequence (Q5TCQ9 1-1481): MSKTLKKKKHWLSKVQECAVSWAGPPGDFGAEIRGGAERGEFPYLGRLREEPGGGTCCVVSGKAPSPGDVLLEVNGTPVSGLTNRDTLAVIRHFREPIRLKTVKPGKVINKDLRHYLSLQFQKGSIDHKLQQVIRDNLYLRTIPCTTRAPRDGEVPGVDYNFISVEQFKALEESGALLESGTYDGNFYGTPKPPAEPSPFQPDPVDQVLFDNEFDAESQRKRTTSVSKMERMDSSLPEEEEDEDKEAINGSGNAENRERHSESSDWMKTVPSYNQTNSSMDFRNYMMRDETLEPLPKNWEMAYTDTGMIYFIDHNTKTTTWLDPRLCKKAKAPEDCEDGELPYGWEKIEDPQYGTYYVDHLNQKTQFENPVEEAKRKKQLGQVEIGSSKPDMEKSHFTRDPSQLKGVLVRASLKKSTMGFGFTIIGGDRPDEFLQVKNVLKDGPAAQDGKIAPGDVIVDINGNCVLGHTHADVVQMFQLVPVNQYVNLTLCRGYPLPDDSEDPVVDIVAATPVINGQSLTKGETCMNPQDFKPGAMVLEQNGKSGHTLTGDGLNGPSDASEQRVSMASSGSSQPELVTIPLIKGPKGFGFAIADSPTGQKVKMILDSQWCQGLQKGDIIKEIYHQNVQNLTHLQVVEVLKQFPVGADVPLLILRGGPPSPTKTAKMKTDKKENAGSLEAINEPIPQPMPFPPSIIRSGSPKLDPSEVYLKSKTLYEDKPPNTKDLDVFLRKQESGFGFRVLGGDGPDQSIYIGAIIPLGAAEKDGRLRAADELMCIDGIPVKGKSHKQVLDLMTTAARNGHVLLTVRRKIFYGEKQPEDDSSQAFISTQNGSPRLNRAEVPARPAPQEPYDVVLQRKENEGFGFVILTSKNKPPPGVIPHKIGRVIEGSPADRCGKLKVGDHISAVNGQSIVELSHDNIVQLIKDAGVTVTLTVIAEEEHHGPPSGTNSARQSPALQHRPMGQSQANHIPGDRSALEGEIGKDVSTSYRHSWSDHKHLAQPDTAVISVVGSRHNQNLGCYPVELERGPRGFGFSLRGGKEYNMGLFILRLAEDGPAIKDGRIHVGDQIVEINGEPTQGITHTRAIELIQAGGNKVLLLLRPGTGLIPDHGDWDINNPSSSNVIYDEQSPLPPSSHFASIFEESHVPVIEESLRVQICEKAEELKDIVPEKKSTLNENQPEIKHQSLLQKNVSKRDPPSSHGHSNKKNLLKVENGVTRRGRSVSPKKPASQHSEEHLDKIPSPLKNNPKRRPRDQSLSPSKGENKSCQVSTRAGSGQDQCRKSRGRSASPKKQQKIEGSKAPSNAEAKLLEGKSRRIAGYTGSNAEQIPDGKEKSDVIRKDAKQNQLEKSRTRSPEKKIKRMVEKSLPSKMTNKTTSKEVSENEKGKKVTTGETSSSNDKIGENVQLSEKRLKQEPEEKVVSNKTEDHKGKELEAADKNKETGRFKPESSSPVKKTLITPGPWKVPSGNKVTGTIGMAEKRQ
An outline of the steps: as §1

Assay [4] has as its target T4, PDZ protein (GST-PDZ fusion) (Homo sapiens, UniProt Q6P0Q8).
T4 construct: made in house; host or cells: E. coli (DH5alpha, BL21 or JM109)
A digest of the protocol:
as §1

The subject of assay [5] is PDZ protein (GST-PDZ fusion). An outline of the steps:
as §1

Peptide text beside a SMILES is read from it. * marks the point of attachment. Biotin = O=C1N[C@H]2[C@H](CS[C@H]2CCCCC(=O)*)N1

T2 sequence (Q12923 whole entry, the tested form may be a part): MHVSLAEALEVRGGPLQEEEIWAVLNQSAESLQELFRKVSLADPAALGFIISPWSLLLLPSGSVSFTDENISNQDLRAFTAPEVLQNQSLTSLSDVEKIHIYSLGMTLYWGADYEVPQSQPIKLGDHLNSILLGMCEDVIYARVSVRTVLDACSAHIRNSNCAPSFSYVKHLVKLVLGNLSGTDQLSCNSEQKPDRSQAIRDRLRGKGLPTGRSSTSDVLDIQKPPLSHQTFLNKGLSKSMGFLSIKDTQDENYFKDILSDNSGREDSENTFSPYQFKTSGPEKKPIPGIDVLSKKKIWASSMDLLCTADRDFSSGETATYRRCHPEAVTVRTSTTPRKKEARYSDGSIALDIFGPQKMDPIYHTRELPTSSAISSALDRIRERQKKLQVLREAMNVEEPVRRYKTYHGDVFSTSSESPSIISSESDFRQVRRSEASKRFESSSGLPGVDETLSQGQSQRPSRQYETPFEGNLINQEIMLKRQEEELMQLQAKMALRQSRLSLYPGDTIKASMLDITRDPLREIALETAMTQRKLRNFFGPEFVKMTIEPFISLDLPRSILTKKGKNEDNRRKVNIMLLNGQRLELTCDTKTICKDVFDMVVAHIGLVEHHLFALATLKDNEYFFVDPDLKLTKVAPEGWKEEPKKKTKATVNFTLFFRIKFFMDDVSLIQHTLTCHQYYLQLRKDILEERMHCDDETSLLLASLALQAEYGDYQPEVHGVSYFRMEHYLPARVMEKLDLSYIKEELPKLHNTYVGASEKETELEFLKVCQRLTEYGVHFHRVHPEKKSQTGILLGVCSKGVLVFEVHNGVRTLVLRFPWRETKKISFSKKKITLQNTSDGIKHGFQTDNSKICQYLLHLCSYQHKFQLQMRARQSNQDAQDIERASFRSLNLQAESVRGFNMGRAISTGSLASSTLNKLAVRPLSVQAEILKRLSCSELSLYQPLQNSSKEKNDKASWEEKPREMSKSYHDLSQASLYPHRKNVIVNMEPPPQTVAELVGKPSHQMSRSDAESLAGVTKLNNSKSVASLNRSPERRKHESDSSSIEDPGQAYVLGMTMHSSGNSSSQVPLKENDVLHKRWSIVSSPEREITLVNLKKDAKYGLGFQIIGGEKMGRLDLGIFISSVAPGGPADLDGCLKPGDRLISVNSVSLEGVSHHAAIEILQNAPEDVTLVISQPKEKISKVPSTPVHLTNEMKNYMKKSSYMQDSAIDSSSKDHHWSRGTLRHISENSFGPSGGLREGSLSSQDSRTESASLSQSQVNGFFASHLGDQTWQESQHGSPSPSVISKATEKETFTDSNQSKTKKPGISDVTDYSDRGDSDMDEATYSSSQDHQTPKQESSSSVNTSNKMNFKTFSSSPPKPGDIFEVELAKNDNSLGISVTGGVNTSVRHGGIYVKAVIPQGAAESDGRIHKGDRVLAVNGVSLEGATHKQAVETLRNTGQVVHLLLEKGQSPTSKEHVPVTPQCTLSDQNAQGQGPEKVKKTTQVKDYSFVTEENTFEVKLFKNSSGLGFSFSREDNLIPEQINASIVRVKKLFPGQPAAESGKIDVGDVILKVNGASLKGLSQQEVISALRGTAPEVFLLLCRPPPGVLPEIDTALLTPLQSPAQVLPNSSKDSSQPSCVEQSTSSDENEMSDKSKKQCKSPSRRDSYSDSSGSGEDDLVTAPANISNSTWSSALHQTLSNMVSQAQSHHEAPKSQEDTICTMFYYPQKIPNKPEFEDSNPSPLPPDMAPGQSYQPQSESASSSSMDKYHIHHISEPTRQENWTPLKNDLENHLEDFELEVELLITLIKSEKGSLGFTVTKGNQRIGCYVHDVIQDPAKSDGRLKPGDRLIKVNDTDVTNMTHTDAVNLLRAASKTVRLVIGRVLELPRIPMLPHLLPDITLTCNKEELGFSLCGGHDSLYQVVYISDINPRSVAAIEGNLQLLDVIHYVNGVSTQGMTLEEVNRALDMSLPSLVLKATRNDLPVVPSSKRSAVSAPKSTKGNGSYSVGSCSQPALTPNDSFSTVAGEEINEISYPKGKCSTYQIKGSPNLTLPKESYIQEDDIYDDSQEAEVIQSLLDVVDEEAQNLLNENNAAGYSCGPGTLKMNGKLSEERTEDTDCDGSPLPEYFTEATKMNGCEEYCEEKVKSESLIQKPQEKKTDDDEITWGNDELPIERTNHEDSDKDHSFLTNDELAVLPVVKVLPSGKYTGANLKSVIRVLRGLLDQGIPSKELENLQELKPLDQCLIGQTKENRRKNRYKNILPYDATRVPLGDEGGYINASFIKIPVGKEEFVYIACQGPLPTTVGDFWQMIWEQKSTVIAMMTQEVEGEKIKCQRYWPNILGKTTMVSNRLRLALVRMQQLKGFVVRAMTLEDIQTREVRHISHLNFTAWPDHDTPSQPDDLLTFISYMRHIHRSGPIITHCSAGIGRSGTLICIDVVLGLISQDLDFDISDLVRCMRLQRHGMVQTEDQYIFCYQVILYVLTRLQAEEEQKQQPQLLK
T4 sequence (Q6P0Q8 whole entry, the tested form may be a part): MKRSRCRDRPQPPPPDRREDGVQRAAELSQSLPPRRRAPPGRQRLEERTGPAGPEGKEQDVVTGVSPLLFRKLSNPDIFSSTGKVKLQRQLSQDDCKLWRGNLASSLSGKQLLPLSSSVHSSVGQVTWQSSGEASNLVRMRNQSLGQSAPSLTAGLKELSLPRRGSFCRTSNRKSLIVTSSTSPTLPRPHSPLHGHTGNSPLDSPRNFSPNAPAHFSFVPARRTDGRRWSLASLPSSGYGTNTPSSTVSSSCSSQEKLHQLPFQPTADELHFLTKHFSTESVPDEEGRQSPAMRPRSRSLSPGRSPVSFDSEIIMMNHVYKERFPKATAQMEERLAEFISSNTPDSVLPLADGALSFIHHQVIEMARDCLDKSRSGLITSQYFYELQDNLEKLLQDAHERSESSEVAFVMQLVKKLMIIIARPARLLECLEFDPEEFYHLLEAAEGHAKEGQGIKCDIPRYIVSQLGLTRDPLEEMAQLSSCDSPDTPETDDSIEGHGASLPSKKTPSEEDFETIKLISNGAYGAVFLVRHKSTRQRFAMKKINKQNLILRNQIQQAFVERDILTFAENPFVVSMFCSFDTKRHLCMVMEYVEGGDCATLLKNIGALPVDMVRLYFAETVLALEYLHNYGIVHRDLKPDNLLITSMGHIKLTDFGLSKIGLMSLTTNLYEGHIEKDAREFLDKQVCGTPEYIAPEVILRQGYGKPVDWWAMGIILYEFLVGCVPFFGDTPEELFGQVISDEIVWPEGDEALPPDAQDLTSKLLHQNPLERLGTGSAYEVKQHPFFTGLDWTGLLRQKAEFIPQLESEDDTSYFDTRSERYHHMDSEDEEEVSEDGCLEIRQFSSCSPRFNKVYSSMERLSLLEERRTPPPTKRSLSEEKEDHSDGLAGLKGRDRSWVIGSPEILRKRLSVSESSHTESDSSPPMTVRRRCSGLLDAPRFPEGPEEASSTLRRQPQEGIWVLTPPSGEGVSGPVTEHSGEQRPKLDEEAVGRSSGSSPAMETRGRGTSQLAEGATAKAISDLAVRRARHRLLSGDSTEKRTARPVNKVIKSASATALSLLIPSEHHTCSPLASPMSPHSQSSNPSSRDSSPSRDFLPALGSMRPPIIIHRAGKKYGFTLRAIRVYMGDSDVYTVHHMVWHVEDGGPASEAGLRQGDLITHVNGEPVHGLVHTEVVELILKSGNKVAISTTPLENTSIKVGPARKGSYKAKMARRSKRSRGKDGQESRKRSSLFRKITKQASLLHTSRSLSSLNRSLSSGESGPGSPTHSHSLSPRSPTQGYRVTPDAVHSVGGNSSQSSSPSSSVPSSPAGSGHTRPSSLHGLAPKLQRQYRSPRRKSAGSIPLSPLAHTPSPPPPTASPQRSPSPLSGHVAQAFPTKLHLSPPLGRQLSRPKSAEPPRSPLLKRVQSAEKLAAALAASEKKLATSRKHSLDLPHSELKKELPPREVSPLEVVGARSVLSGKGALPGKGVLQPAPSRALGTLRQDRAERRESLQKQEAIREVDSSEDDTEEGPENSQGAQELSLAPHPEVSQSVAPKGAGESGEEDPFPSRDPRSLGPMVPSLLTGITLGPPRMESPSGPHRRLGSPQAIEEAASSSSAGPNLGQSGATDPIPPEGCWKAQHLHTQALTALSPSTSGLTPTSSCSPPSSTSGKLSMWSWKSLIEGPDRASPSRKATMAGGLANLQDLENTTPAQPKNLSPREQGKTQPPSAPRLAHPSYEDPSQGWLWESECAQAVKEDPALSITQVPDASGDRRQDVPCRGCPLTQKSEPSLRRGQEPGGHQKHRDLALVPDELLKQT

For `CC(C)C[C@H](NC(=O)[C@H](CC(=O)O)NC(=O)[C@H](CO)NC(=O)[C@H](CCC(=O)O)NC(=O)CNC(=O)[C@H](Cc1ccc(O)cc1)NC(=O)[C@H](CC(C)C)NC(=O)[C@H](C)NC(=O)[C@H](CO)NC(=O)[C@H](CO)NC(=O)[C@H](Cc1ccccc1)NC(=O)[C@H](C)NC(=O)[C@H](C)NC(=O)[C@H](Cc1ccc(O)cc1)NC(=O)[C@H](CC(=O)O)NC(=O)[C@H](CC(C)C)NC(=O)[C@H](C)NC(=O)CNC(=O)[C@@H]1CCCN1C(=O)[C@@H](NC(=O)CCCC[C@@H]1SC[C@@H]2NC(=O)N[C@@H]21)C(C)C)C(=O)O` [a-actinin 2] (Biotin-VPGALDYAAFSSALYGESDL-OH; C-terminus assumed), the Classification is recorded as 1 (A450 nm 0-1) in assay [1]; 1 (A450 nm 0-1) in assay [2] (PDZ PTPL-1, PDZ Domain 2); 5 (A450 nm of 4 more than 2× repeated) in assay [3] (PDZ KIAA1634, PDZ Domain 5); 5 (A450 nm of 4 more than 2× repeated) in assay [4] (PDZ KIAA0807(S), PDZ Domain 1); 5 (A450 nm of 4 more than 2× repeated) in assay [4] (PDZ KIAA807, PDZ Domain not given); 1 (A450 nm 0-1) in assay [5] (PDZ BAI-1, PDZ Domain 2). Moreover, the Classification in assay [5] (PDZ BAI-1, PDZ Domain 6) is reported as 5 (A450 nm of 4 more than 2× repeated); in assay [5] (PDZ LIM Protein, PDZ Domain 1), 4 (A450 nm 3-4); in assay [5] (PDZ Novel PDZ, PDZ Domain 1), 2 (A450 nm 1-2); in assay [5] (PDZ SHANK, PDZ Domain 1), 1 (A450 nm 0-1).

For the compound `CC(C)C[C@H](NC(=O)[C@H](C)NC(=O)[C@@H](NC(=O)[C@H](CCC(=O)O)NC(=O)[C@H](CCCNC(=N)N)NC(=O)[C@H](CCCNC(=N)N)NC(=O)CNC(=O)[C@H](CCC(N)=O)NC(=O)[C@H](CC(C)C)NC(=O)[C@H](CCCNC(=N)N)NC(=O)CNC(=O)CNC(=O)[C@H](CCCNC(=N)N)NC(=O)[C@H](C)NC(=O)[C@H](CO)NC(=O)[C@H](CCCNC(=N)N)NC(=O)CNC(=O)CNC(=O)[C@H](C)NC(=O)[C@H](C)NC(=O)CCCC[C@@H]1SC[C@@H]2NC(=O)N[C@@H]21)[C@@H](C)O)C(=O)O` [HPV E6 33 (modified)] (Biotin-AAGGRSARGGRLQGRRETAL-OH; C-terminus assumed), the Classification is 5 (A450 nm of 4 more than 2× repeated) in assay [1]; 5 (A450 nm of 4 more than 2× repeated) in assay [3] (PDZ KIAA1634, PDZ Domain 1); 5 (A450 nm of 4 more than 2× repeated) in assay [4] (PDZ KIAA0807(S), PDZ Domain 1); 5 (A450 nm of 4 more than 2× repeated) in assay [5] (PDZ BAI-1, PDZ Domain 2); 1 (A450 nm 0-1) in assay [5] (PDZ BAI-1, PDZ Domain 5); 1 (A450 nm 0-1) in assay [5] (PDZ BAI-1, PDZ Domain 6). Further, the Classification in assay [5] (PDZ FLJ 00011, PDZ Domain 1) is 1 (A450 nm 0-1); in assay [5] (PDZ SHANK, PDZ Domain 1), 4 (A450 nm 3-4).

Take `CC[C@H](C)[C@H](NC(=O)[C@H](CCC(=O)O)NC(=O)[C@H](CC(N)=O)NC(=O)[C@H](CCCNC(=N)N)NC(=O)[C@H](Cc1ccccc1)NC(=O)[C@H](CC(N)=O)NC(=O)[C@H](CO)NC(=O)[C@H](CC(N)=O)NC(=O)[C@H](CCC(=O)O)NC(=O)[C@H](CO)NC(=O)[C@H](CC(=O)O)NC(=O)[C@H](CO)NC(=O)[C@@H](NC(=O)[C@@H](NC(=O)[C@H](CC(=O)O)NC(=O)[C@H](CCCCN)NC(=O)CCCC[C@@H]1SC[C@@H]2NC(=O)N[C@@H]21)[C@@H](C)CC)[C@@H](C)O)C(=O)N[C@@H](CCC(N)=O)C(=O)N[C@@H](CO)C(=O)N[C@@H](CC(C)C)C(=O)N[C@H](C(=O)O)C(C)C` [CD95] (Biotin-KDITSDSENSNFRNEIQSLV-OH; C-terminus assumed): the Classification was 1 (A450 nm 0-1) in assay [1]; 3 (A450 nm 2-3) in assay [2] (PDZ PTPL-1, PDZ Domain 2); 1 (A450 nm 0-1) in assay [2] (PDZ PTPL-1, PDZ Domain 4); 1 (A450 nm 0-1) in assay [3] (PDZ KIAA1634, PDZ Domain 1); 1 (A450 nm 0-1) in assay [3] (PDZ KIAA1634, PDZ Domain 2); 1 (A450 nm 0-1) in assay [3] (PDZ KIAA1634, PDZ Domain 4). The Classification in assay [5] (PDZ BAI-1, PDZ Domain 5) is recorded as 3 (A450 nm 2-3).

Regarding `CC[C@H](C)[C@H](NC(=O)[C@H](CCC(N)=O)NC(=O)CCCC[C@@H]1SC[C@@H]2NC(=O)N[C@@H]21)C(=O)N[C@@H](CO)C(=O)N1CCC[C@H]1C(=O)NCC(=O)NCC(=O)N[C@@H](CC(C)C)C(=O)N[C@@H](CCC(=O)O)C(=O)N1CCC[C@H]1C(=O)N1CCC[C@H]1C(=O)N[C@@H](CO)C(=O)N[C@@H](CCC(=O)O)C(=O)N[C@@H](CCCCN)C(=O)N[C@@H](Cc1c[nH]cn1)C(=O)N[C@@H](Cc1ccccc1)C(=O)N[C@@H](CCCNC(=N)N)C(=O)N[C@@H](CCC(=O)O)C(=O)N[C@H](C(=O)N[C@@H](CCC(=O)O)C(=O)N[C@H](C(=O)O)C(C)C)[C@@H](C)O` [Tax], the Classification in assay [1] was 5 (A450 nm of 4 more than 2× repeated); in assay [2] (PDZ PTPL-1, PDZ Domain 2) it was 2 (A450 nm 1-2); in assay [3] (PDZ KIAA1634, PDZ Domain 1) it was 5 (A450 nm of 4 more than 2× repeated); in assay [3] (PDZ KIAA1634, PDZ Domain 2), 2 (A450 nm 1-2); in assay [3] (PDZ KIAA1634, PDZ Domain 4), 2 (A450 nm 1-2); in assay [3] (PDZ KIAA1634, PDZ Domain 5), 1 (A450 nm 0-1). Further, the Classification was 5 (A450 nm of 4 more than 2× repeated) in assay [5] (PDZ BAI-1, PDZ Domain 2); 1 (A450 nm 0-1) in assay [5] (PDZ BAI-1, PDZ Domain 3); 2 (A450 nm 1-2) in assay [5] (PDZ BAI-1, PDZ Domain 4); 5 (A450 nm of 4 more than 2× repeated) in assay [5] (PDZ BAI-1, PDZ Domain 5); 1 (A450 nm 0-1) in assay [5] (PDZ BAI-1, PDZ Domain 6); 1 (A450 nm 0-1) in assay [5] (PDZ Connector Enhancer, PDZ Domain 1). Besides, the Classification in assay [5] (PDZ FLJ 00011, PDZ Domain 1) is 1 (A450 nm 0-1); in assay [5] (PDZ FLJ 11215, PDZ Domain 1), 1 (A450 nm 0-1).

“APC—adenomatous polyposis coli protein (ESSGTQSPKRHSGSYLVTSV)”: the Classification in assay [1] is on record as 2 (A450 nm 1-2); in assay [3] (PDZ KIAA1634, PDZ Domain 1) it was 1 (A450 nm 0-1); in assay [3] (PDZ KIAA1634, PDZ Domain 2), 1 (A450 nm 0-1); in assay [4] (PDZ KIAA0807(S), PDZ Domain 1) it was 1 (A450 nm 0-1); in assay [4] (PDZ KIAA807 (domain not given)), 1 (A450 nm 0-1); in assay [5] (PDZ BAI-1, PDZ Domain 2), 1 (A450 nm 0-1). Moreover, the Classification in assay [5] (PDZ BAI-1, PDZ Domain 5) is given as 1 (A450 nm 0-1); in assay [5] (PDZ FLJ 00011, PDZ Domain 1), 1 (A450 nm 0-1).
